In ChEMBL document CHEMBL1201862, “PubChem BioAssay data set” (2004):
Active and inactive are the calls of the source. Rule as the data show it, for most assays here: actives have a measured EC50 and inactives only a lower limit.

What was measured:
[1] = target: T1, Calpain-2 catalytic subunit (Sus scrofa, UniProt P43367); assay: m-calpain protease blockers, concentration series – biochemical, fluorogenic peptide substrate, dose response (AID 1420); type: functional
T1 sequence (P43367 whole entry): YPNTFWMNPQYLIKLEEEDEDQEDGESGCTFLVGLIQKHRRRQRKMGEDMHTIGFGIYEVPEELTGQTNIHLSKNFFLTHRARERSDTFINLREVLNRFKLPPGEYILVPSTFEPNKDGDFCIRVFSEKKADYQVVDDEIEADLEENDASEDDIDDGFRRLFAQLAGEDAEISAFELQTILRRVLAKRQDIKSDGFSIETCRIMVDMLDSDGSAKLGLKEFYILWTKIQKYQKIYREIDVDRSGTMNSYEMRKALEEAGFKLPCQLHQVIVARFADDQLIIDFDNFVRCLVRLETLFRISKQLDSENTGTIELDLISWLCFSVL

[2] = tested on: BJ; assay: BJ-TERT fibroblast viability loss – cell-based, RAS-independent, luminescence, dose response (AID 1933); type: functional; conditions: Homo sapiens
[3] = tested on: BJ; assay: cells; type: functional, cell-based; conditions: Homo sapiens
[4] = tested on: BJ; assay: BJ-TERT-LT-ST fibroblast viability loss – cell-based, RAS-independent, luminescence, dose response (AID 1935); type: functional; conditions: Homo sapiens;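 also: BJ fibroblasts immortalized with TERT plus LT and ST oncogenes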
[5] = DRD fibroblast viability loss – cell-based, non-viral oncogenic, luminescence, dose response (AID 1934); type: functional; conditions: Homo sapiens
[6] = Luminescence Cell-Based Dose Response HTS to Identify Inhibitors of 5'UTR Stem-Loop Driven Prion Protein mRNA Translation in H4 Neuroglioblastoma Cells. [Related pubchem assays: 1827 (Project Summary), 1813 (Primary HTS)]; type: functional
[7] = alpha-synuclein stem-loop luciferase translation blockers – H4 neuroglioma cells, luminescence, confirmation (AID 1988); type: functional, cell-based
[8] = luciferase reporter signal suppression in cells – H4 neuroglioma cells, luminescence, dose response (AID 1990); type: functional, cell-based
[9] = viability of uninfected HEp-2 cells – cell-based, HTS, cytotoxicity control for RSV inhibitor project, dose response (AID 2410); type: functional; conditions: human respiratory syncytial virus
[10] = target: Cytochrome P450 2D6 (Homo sapiens, UniProt P10635);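 also: CYP2D6 member of a cytochrome P450 panel assay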
[11] = target: T2, Cytochrome P450 1A2 (Homo sapiens, UniProt P05177);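 also: PubChem cytochrome P450 panel assay, CYP1A2 panel member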
T2 sequence (P05177 whole entry): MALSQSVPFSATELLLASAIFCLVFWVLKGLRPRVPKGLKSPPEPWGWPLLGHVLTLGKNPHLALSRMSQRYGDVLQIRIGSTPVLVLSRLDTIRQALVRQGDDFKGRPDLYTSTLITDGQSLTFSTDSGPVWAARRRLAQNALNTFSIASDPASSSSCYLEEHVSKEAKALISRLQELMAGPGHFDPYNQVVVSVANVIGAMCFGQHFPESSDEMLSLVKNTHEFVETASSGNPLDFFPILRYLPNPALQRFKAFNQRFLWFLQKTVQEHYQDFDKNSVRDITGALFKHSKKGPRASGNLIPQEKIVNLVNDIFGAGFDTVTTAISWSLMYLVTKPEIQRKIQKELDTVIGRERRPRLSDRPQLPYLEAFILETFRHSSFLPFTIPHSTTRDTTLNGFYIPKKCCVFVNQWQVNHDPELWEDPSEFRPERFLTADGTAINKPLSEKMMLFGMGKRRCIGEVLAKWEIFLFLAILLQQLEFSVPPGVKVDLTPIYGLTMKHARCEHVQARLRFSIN

[12] = target: Cytochrome P450 3A4 (Homo sapiens, UniProt P08684);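 also: CYP3A4 tested as one member of a cytochrome P450 panel screen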
[13] = target: T3, Replicative DNA helicase DnaB (Mycobacterium tuberculosis, UniProt P9WMR3); assay: DnaB intein splicing inhibitors, dose response, biochemical, cell-free fluorescence (AID 449749); type: functional
T3 sequence (P9WMR3 whole entry): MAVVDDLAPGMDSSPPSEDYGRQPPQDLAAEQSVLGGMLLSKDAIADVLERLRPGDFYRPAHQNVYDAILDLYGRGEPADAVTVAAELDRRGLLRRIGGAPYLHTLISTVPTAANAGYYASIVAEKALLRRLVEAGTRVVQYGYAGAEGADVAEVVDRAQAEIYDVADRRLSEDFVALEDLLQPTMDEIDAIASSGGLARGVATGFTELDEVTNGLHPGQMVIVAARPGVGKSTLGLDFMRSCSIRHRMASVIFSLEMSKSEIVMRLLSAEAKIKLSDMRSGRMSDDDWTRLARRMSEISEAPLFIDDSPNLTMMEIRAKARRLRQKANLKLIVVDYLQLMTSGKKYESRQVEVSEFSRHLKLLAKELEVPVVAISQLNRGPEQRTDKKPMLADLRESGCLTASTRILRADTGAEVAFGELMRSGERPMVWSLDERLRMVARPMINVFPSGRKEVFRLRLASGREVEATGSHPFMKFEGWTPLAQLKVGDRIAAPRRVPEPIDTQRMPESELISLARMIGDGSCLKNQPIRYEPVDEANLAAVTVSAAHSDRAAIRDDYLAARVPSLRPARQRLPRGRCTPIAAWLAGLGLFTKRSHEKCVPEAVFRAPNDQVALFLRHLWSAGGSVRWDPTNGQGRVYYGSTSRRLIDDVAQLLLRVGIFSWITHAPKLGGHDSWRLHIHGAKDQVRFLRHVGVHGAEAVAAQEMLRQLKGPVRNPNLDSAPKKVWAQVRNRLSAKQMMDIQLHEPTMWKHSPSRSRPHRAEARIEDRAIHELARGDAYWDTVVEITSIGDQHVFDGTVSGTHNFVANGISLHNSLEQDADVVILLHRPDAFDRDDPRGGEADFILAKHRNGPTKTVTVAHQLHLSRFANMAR

[14] = target: T4, Protein RecA (Mycobacterium tuberculosis, UniProt P9WHJ3); assay: Fluorescence Cell-Free Homogeneous Dose Retest to Identify Inhibitors of RecA-Intein Splicing Activity. [Related pubchem assays (depositor defined):AID2097, AID2223, AID489010, AID492950]; type: functional
T4 sequence (P9WHJ3 whole entry): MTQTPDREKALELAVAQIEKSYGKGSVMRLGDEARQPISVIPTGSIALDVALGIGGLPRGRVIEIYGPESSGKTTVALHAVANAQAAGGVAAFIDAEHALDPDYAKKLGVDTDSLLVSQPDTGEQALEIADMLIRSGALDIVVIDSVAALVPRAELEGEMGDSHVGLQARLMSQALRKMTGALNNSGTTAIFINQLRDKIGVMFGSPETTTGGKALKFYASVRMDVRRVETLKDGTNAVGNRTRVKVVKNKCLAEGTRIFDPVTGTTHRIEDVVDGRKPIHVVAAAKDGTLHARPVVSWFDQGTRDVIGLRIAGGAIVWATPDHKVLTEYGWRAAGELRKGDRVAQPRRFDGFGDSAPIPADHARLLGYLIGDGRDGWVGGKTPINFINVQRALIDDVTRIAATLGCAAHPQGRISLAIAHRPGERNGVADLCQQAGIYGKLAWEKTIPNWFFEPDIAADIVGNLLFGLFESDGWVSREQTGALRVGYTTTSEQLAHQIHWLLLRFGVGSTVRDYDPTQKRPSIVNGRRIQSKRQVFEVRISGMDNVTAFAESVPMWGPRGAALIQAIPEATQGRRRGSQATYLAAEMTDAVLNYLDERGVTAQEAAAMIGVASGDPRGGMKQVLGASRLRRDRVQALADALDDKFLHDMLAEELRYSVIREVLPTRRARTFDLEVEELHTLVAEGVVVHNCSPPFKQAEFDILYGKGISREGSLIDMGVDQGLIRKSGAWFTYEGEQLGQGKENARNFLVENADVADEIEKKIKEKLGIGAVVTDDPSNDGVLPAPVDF

[15] = target: T5, Heat shock factor protein 1 (Mus musculus, UniProt P38532); assay: decrease of HSF1-responsive luciferase luminescence – cell-based, NIH3T3, dose retest, confirmation (AID 2382); type: functional;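 also: NIH3T3 fibroblasts with HSF1-driven luciferase reporter stressed by proteasome inhibitor MG132; luminescence from HSF1-driven luciferase expression after 8 hours of MG132 stress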
T5 sequence (P38532 whole entry): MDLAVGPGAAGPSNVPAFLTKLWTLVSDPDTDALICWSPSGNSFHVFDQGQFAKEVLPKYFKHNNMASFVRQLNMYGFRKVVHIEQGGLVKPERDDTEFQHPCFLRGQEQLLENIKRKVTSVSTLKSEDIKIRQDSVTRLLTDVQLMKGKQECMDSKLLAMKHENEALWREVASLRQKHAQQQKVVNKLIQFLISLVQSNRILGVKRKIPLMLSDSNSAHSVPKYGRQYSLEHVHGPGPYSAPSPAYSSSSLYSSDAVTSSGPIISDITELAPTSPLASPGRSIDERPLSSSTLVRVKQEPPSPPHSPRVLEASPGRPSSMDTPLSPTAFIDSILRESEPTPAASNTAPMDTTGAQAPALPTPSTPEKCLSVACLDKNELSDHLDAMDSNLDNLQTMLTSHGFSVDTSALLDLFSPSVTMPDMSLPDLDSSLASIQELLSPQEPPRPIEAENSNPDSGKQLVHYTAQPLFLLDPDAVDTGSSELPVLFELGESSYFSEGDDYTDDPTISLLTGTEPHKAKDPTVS

[16] = target: Luciferin 4-monooxygenase (Photinus pyralis, UniProt P08659); assay: inhibition of purified Photinus pyralis luciferase – biochemical, luminescence, dose response (AID 1891)
[17] = Luminescence Cell-Based Dose Confirmation HTS to Identify Inhibitors of Platelet Dense Granule Release. [Related pubchem assays: 1663 (Primary HTS), 1678 (Summary of Project)]; type: functional

Chain of Luciferin 4-monooxygenase (P08659 whole entry): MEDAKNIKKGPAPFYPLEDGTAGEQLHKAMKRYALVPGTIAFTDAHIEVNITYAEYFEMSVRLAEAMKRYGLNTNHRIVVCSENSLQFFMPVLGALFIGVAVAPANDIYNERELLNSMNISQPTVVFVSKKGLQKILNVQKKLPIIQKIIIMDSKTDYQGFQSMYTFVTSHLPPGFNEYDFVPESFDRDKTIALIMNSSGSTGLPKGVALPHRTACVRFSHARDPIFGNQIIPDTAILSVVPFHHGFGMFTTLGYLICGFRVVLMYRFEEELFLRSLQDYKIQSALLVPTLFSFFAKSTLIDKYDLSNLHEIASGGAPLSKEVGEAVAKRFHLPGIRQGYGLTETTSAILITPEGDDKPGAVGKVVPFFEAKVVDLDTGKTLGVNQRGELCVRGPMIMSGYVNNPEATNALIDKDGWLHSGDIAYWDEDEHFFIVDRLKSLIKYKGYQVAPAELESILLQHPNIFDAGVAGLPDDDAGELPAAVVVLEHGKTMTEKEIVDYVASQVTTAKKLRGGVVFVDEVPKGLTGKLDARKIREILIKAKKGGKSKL
Chain of Cytochrome P450 3A4 (P08684 whole entry): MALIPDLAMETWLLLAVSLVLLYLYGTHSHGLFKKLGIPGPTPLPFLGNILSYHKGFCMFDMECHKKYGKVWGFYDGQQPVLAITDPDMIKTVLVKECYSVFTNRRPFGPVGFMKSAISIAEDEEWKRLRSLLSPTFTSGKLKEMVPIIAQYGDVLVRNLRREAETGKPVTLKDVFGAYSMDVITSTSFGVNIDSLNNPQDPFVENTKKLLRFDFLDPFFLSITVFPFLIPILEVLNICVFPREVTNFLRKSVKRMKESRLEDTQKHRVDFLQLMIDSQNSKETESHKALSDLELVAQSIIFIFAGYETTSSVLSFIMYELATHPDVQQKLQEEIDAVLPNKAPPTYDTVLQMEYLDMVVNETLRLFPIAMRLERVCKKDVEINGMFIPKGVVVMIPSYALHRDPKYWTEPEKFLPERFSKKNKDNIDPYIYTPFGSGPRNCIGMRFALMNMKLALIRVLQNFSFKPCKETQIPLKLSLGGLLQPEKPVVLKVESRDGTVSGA
Chain of Cytochrome P450 2D6 (P10635 whole entry): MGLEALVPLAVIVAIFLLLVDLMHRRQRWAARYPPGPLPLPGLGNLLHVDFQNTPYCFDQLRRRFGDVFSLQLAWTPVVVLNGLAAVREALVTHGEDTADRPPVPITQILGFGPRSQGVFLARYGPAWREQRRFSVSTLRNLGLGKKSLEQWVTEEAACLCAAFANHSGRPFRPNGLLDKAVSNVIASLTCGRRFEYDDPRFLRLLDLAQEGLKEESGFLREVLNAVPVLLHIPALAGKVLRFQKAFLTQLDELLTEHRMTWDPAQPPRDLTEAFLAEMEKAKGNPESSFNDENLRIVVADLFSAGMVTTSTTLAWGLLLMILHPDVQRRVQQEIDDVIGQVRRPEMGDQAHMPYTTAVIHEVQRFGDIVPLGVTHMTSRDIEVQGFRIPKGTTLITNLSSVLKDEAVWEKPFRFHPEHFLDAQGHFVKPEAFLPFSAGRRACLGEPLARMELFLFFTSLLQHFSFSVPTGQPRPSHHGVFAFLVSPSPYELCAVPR

SMILES: Cc1ccc(SC[C@H](Cc2ccccc2)N2CCN(CCc3ccccc3)CCC2=O)cc1
- IC50 [1]: 5.01 µM (not active)

SMILES: COc1ccc(/C=C2\SC(=S)N(CC(=O)OCC(=O)Nc3cc(Cl)cc(Cl)c3)C2=O)cc1
- EC50 [2]: > 150 µM (not active)
- EC50 [3]: > 150 µM (not active)
- EC50 [4]: > 150 µM (not active)
- EC50 [5]: > 150 µM (not active)

SMILES: CN(C)c1ccc2nc3ccc(N(C)C)cc3[s+]c2c1 [METHYLENE BLUE ANHYDROUS]
- EC50 [6]: 11.1 µM (inconclusive)
- EC50 [7]: 5.46 µM (inconclusive)

SMILES: CC(C)Cn1c(N)c(C(=O)COC(=O)c2ccccc2F)c(=O)n(C)c1=O
- IC50 [1]: > 50 µM (not active)

SMILES: O=Cc1ccc(-n2nncc2-c2ccc([N+](=O)[O-])cc2)cc1
- IC50 [1]: 12.6 µM (not active)

SMILES: CCC1CCCCN1C(=O)c1ccc(OC2CCN(C(=O)C3CC3)CC2)cc1 (centres undefined)
- IC50 [1]: > 50 µM (not active)

SMILES: CCOc1ccc(NC(=S)NC(=O)/C=C/c2ccc(OC)cc2)c([N+](=O)[O-])c1
- IC50 [1]: 17.2 µM (not active)

SMILES: O=C(Nc1cnn(Cc2ccc(F)cc2)c1)c1cc2nc(-c3ccco3)cc(C(F)(F)F)n2n1
- IC50 [1]: 0.777 µM (not active)

SMILES: CCOC(=O)c1c(C)nc2sc3c(=O)n(-c4ccc(OC)cc4)cnc3c2c1-c1ccc(OC)cc1
- EC50 [8]: 12.9 µM (active)
- EC50 [6]: > 120 µM (not active)
- EC50 [7]: 21.1 µM (active)

SMILES: O=C(NC12CC3CC(CC(C3)C1)C2)c1ccc(COc2ccc(Cl)cc2[N+](=O)[O-])o1
- CC50 [9]: 32.4 µM (active)
- AC50 [10]: 28.2 µM (inconclusive)
- AC50 [11]: 14.1 µM (inconclusive)
- AC50 [12]: 15.8 µM (inconclusive)

SMILES: C/C(CC(=O)Nc1ccccn1)=N\NC(=O)c1ccccc1O
- EC50 [8]: 14 µM (active)
- EC50 [6]: 10.9 µM (active)
- EC50 [7]: 12.7 µM (active)

SMILES: O=C(O)COc1cccc(/C=C2/SC(=S)N(Cc3ccccc3)C2=O)c1
- EC50 [2]: > 150 µM (not active)
- EC50 [3]: > 150 µM (not active)
- EC50 [4]: > 150 µM (inconclusive)
- EC50 [5]: > 150 µM (not active)
- AC50 [13]: 9.8 µM (active)
- EC50 [14]: 10.1 µM (active)

SMILES: COc1cc(O)oc1/C=N/c1ccc(C(=O)O)cc1
- EC50 [2]: 13.7 µM (active)
- EC50 [15]: > 195 µM (not active)
- EC50 [3]: 9.97 µM (active)
- EC50 [16]: 10.7 µM (active)
- EC50 [17]: 2.74 µM (active)
- EC50 [4]: > 150 µM (inconclusive)
- EC50 [5]: 10.7 µM (active)

SMILES: CCCN1CCC(=NNc2ccc(S(=O)(=O)N3CCOCC3)cc2[N+](=O)[O-])CC1
- EC50 [8]: 11.1 µM (inconclusive)
- EC50 [6]: 13.8 µM (active)
- EC50 [7]: 6.57 µM (active)

SMILES: CCOC(=O)c1ccc(NC(=O)Nc2ncccc2C)cc1
- IC50 [1]: 12.4 µM (not active)

SMILES: CCOC(=O)c1c(NC(=O)CNC2CCCCC2)sc(C)c1C
- IC50 [1]: 6.04 µM (not active)

SMILES: CCCCNc1nc(NC)nc(Cl)c1SC
- EC50 [8]: > 120 µM (not active)
- EC50 [6]: > 120 µM (not active)
- EC50 [7]: > 120 µM (not active)

SMILES: COc1ccc(C2CC(C(F)(F)F)n3ncc(C(=O)Nc4cccc(O)c4)c3N2)cc1OC (centres undefined)
- EC50 [8]: 20.3 µM (active)
- EC50 [6]: 23.2 µM (active)
- EC50 [7]: 54.7 µM (active)

SMILES: CCn1cnc2c([N+](=O)[O-])c(NS(=O)(=O)c3ccc(C)cc3)ccc21
- EC50 [2]: > 150 µM (not active)
- EC50 [3]: > 150 µM (not active)
- EC50 [4]: > 150 µM (inconclusive)
- EC50 [5]: > 150 µM (not active)

SMILES: CCC(C)C(=O)Nc1ccc([N+](=O)[O-])cc1OC (centres undefined)
- IC50 [1]: 16.1 µM (not active)

SMILES: O=S(=O)(c1ccc2c(c1)OCCO2)N1CCc2ccccc21
- IC50 [1]: > 50 µM (not active)

SMILES: COc1cc(OC)cc(C(=O)NCCN2CCOCC2)c1
- IC50 [1]: 48.3 µM (not active)

SMILES: CCOC(=O)CN1N=C(/C=C/c2ccc(C(C)C)cc2)CCC1=O
- IC50 [1]: 9.2 µM (active)
